Like-named read-outs stand apart in the source and are kept apart here.
Columns and labels:
hTG2 = biological target: T1, hTG2 (Homo sapiens, UniProt P21980); assay: biochemical; details: for Ki: read-out: KI (converted); for kinact: read-out: kinact (converted); for kinact/KI: read-out: kinact/KI (converted)
T1 sequence (P21980 1-687): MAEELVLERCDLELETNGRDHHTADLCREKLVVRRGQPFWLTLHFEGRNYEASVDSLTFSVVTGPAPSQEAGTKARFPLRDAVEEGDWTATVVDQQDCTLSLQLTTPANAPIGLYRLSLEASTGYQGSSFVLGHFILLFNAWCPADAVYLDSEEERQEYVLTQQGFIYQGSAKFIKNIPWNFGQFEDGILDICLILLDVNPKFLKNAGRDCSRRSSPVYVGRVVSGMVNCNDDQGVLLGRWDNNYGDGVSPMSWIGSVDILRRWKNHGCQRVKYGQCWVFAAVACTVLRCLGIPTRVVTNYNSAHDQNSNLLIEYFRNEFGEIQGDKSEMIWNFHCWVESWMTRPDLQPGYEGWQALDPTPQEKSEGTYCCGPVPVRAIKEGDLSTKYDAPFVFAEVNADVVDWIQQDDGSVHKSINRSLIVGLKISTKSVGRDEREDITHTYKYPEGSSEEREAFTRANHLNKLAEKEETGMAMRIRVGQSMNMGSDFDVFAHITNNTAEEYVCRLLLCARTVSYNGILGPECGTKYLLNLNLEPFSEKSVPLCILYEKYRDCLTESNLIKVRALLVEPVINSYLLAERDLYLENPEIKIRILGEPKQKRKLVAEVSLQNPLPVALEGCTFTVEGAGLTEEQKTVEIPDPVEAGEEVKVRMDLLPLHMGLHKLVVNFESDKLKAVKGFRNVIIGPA
Method: The ability of the compounds to inhibit TG2 transamidase activity and the kinetics of TG2 inhibition were investigated using a colorimetric activity assay, as follows:
Colorimetric transamidase activity assay. The activities of hTG1, hTG2 and hTG6 were measured via a colorimetric assay using the chromogenic substrate Cbz-Glu(γ-p-nitrophenyl ester)Gly (AL5), as described (Leblanc, A. et al., “Kinetic studies of guinea pig liver transglutaminase reveal a general-base-catalyzed deacylation mechanism.” Biochemistry 2001, 40 (28), 8335-8342). Assays were conducted at 25° C. in 50 mM MOPS buffer (pH 6.95) containing 7.5 mM CaCl2. […] The substrate AL5 was prepared in as a stock solution in DMSO such that the final concentration of this co-solvent was constant at 2.5% v/v. Stock solutions of the inhibitors were made in water ranging in concentration from 100-500 μM. The reaction was initiated with the addition of enzyme, 0.10 μM hTG1, 0.25 μM hTG2 (4.6 mU/mL) or 0.32 μM hTG6. Formation of hydrolysis product, p-nitrophenolate (pNP), was monitored at 405 nm in a polystyrene 96-well microplate using a BioTek Synergy 4 plate reader. The observed first-order rate constants of inactivation (kobs) were determined via non-linear regression fit to a mono-exponential model (Eqn 1) of absorbance versus time curves. These rate constants (kobs) were in turn fit to a saturation kinetics model (Eqn 2), by non-linear regression, providing the kinetic parameters kinact and KI, as previously described by Stone and Hofsteenge (Stone, S. R. and Hofsteenge, J., “Specificity of activated human protein C.” Biochem. J. 1985, 230 (2), 497-502). […] Experiments were completed in triplicate at minimum.
Fitting of this time-dependent inactivation to a monoexponential equation gave first-order rate constants, kobs. […] In some cases, the kinetic data were fitted to a linear double reciprocal equation.

SCC-13 cells = assay: ECS cell invasion through Matrigel (Transwell); type: cell-based; details: 0-100 μM inhibitor, 18 h, read-out: EC50 for inhibition of ECS invasion
Method: One well-known property of tumour-initiating cells associated with cancer metastasis is the enhanced ability to invade Matrigel (collagen). For example, it has been shown that epidermal cancer stem (ECS) cells invade Matrigel more efficiently than non-stem cancer cells, and that these properties are associated with enhanced tumour formation (Adhikary, G. et al., PLoS ONE 2013, 8, e84324. https://doi.org/10.1371/journal.pone.0084324). We have shown previously that ˜20 μM of NC9 and 3.9 μM of VA4 can reduce ECS cell invasion through Matrigel by ˜50% relative to vehicle-treated cells (Akbar, A. et al., J. Med. Chem. 2017, 60, 7910-7927. https://doi.org/10.1021/acs.jmedchem.7b01070; Fisher, M. L. et al., Oncotarget 2015, 6, 20525-20539. https://doi.org/10.18632/oncotarget.3890).
Materials and Methods for cell invasion data. To measure cell invasion, Matrigel (Corning, catalogue no. 354234) was diluted to 250 μg/mL and 120 μL was added to the upper chambers of a Transwell plate (Corning, no. 353097, 1-cm diameter, 8-μm pore size) and allowed to solidify. SCC-13 cells were suspended in spheroid medium (Fisher, M. L. et al., Cancer Res. 2016, 76, 7265-7275. https://doi.org/10.1158/0008-5472.can-16-2032; Adhikary, G. et al., Carcinogenesis 2015, 36, 800-810. https://doi.org/10.1093/carcin/bgv064) containing 1% foetal calf serum (FCS), and 20,000 cells were plated into each upper chamber atop the Matrigel. The bottom chamber contained spheroid medium supplemented with 10% FCS and 0-100 μM of inhibitor. After incubation for 18 h in a 37° C. incubator, cells in the top chamber were removed with a swab and cells on the lower surface of the membrane were fixed with 4% paraformaldehyde and the nuclei were stained with 4′,6-diamidino-2-phenylindole. Cell number was counted in multiple fields (n=4) using a fluorescence microscope, normalized with respect to the number counted in the presence of vehicle only, and expressed as mean±standard deviation.

[1] = fit to saturation kinetics model, 25° C., pH 6.95, 100 μM AL5
[2] = values determined using a double-reciprocal analysis

SMILES	Ki (hTG2; [1]) [µM]	kinact (hTG2; [1]) [s⁻¹]	kinact/KI (hTG2; [1]) [M⁻¹ s⁻¹]	EC50 (SCC-13 cells) [µM]	Ki (hTG2; [2]) [µM]	kinact (hTG2; [2]) [s⁻¹]	kinact/KI (hTG2; [2]) [M⁻¹ s⁻¹]
C=CC(=O)NCCCC[C@H](NC(=O)CCCc1ccccc1)C(=O)N1CCN(C(=O)c2cccc3ccccc23)CC1 [Inhibitor 69, (S)-N-(1-(4-(1-naphthoyl)piperazin-1-yl)-6-acrylamido-1-oxohexan-2-yl)-4-phenylbutanamide]	5.3 ± 0.6	0.0035	660	–	–	–	–
C=CC(=O)NCCCC[C@H](NC(=O)Cc1ccc(F)cc1)C(=O)N1CCN(C(=O)c2cccc3ccccc23)CC1 [Inhibitor 70, (S)-N-(6-(4-(1-naphthoyl)piperazin-1-yl)-5-(2-(4-fluorophenyl)acetamido)-6-oxohexyl)acrylamide]	4.2 ± 0.9	0.00817	1980	–	–	–	–
C=CC(=O)NCCCC[C@H](NC(=O)Cc1cccc(F)c1)C(=O)N1CCN(C(=O)c2cccc3ccccc23)CC1 [Inhibitor 71, (S)-N-(6-(4-(1-naphthoyl)piperazin-1-yl)-5-(2-(3-fluorophenyl)acetamido)-6-oxohexyl)acrylamide]	4.9 ± 0.5	0.0125	2580	–	–	–	–
C=CC(=O)NCCCC[C@H](NC(=O)Cc1cccc(Cl)c1)C(=O)N1CCN(C(=O)c2cccc3ccccc23)CC1 [Inhibitor 73, (S)-N-(6-(4-(1-naphthoyl)piperazin-1-yl)-5-(2-(3-chlorophenyl)acetamido)-6-oxohexyl)acrylamide]	1 ± 0.5	0.005	4830	–	–	–	–
C=CC(=O)NCCCC[C@H](NC(=O)Cc1ccccc1OC)C(=O)N1CCN(C(=O)c2cccc3ccccc23)CC1 [Inhibitor 75, (S)-N-(6-(4-(1-naphthoyl)piperazin-1-yl)-5-(2-(2-methoxyphenyl)acetamido)-6-oxohexyl)acrylamide]	4.6 ± 2.9	0.0233	4980	–	–	–	–
C=CC(=O)NCCCC[C@H](NC(=O)Cc1ccccc1Cl)C(=O)N1CCN(C(=O)c2cccc3ccccc23)CC1 [Inhibitor 76, (S)-N-(6-(4-(1-naphthoyl)piperazin-1-yl)-5-(2-(2-chlorophenyl)acetamido)-6-oxohexyl)acrylamide]	18 ± 6.9	0.0883	4920	92 ± 2	–	–	–
C=CC(=O)NCCCC[C@H](NC(=O)Cc1ccccc1Br)C(=O)N1CCN(C(=O)c2cccc3ccccc23)CC1 [Inhibitor 77, (S)-N-(6-(4-(1-naphthoyl)piperazin-1-yl)-5-(2-(2-bromophenyl)acetamido)-6-oxohexyl)acrylamide]	9.8 ± 1.5	0.0517	5170	94 ± 2	–	–	–
C=CC(=O)NCCCC[C@H](NC(=O)Cc1cccc(Cl)c1Cl)C(=O)N1CCN(C(=O)c2cccc3ccccc23)CC1 [Inhibitor 78, (S)-N-(6-(4-(1-naphthoyl)piperazin-1-yl)-5-(2-(2,3-dichlorophenyl)acetamido)-6-oxohexyl)acrylamide]	2.7 ± 2.8	0.00767	2830	–	–	–	–
C=CC(=O)NCCCC[C@H](NC(=O)Cc1ccc(Cl)c(Cl)c1)C(=O)N1CCN(C(=O)c2cccc3ccccc23)CC1 [Inhibitor 79, (S)-N-(6-(4-(1-naphthoyl)piperazin-1-yl)-5-(2-(3,4-dichlorophenyl)acetamido)-6-oxohexyl)acrylamide]	0.58 ± 0.3	0.00133	2180	–	–	–	–
C=CC(=O)NCCCC[C@H](NC(=O)Cc1ccc(F)cc1F)C(=O)N1CCN(C(=O)c2cccc3ccccc23)CC1 [Inhibitor 80, (S)-N-(6-(4-(1-naphthoyl)piperazin-1-yl)-5-(2-(2,4-difluorophenyl)acetamido)-6-oxohexyl)acrylamide]	2.8 ± 0.9	0.0103	3730	–	–	–	–
C=CC(=O)NCCCC[C@H](NC(=O)Cc1ccccc1C(F)(F)F)C(=O)N1CCN(C(=O)c2cccc3ccccc23)CC1 [Inhibitor 81, (S)-N-(6-(4-(1-naphthoyl)piperazin-1-yl)-5-(2-(2-trifluoromethylphenyl)acetamido)-6-oxohexyl)acrylamide]	10.1 ± 3.1	0.0167	1670	–	–	–	–
C=CC(=O)NCCCC[C@H](NS(=O)(=O)Cc1ccccc1)C(=O)N1CCN(C(=O)c2cccc3ccccc23)CC1 [Inhibitor 88]	46.7 ± 10.2	0.00883	190	–	–	–	–
C=CC(=O)NCCCC[C@H](NS(=O)(=O)c1ccccc1)C(=O)N1CCN(C(=O)c2cccc3ccccc23)CC1 [Inhibitor 89, (S)-N-(6-(4-(1-naphthoyl)piperazin-1-yl)-6-oxo-5-(phenylsulfonamido)hexyl)acrylamide]	–	–	–	–	88.8 ± 6.7	0.0105	118
C=CC(=O)NCCCC[C@H](NS(=O)(=O)CC)C(=O)N1CCN(C(=O)c2cccc3ccccc23)CC1 [Inhibitor 90, (S)-N-(6-(4-(1-naphthoyl)piperazin-1-yl)-5-(ethylsulfonamido)-6-oxohexyl)acrylamide]	26.6 ± 1.1	0.0138	518	–	–	–	–
C=CC(=O)NCCCC[C@H](NS(C)(=O)=O)C(=O)N1CCN(C(=O)c2cccc3ccccc23)CC1 [Inhibitor 91, (S)-N-(6-(4-(1-naphthoyl)piperazin-1-yl)-5-(methylsulfonamido)-6-oxohexyl)acrylamide]	25.3 ± 7.1	0.0095	377	–	–	–	–
